Results as given in patent EP1475385A1 (Newron Pharmaceuticals S.p.A., priority 2003, dated 2004).
Where two headings read alike, the source gives them in different places.

Key:
[1] = biological target: KMO (Homo sapiens, UniProt O15229); conditions: reported in WO 98/40344; read-out: IC50 for KMO inhibition; cited from earlier work
[2] = test system: GLU; assay: Striatal GLU release by transcerebral microdialysis (caudate); assay type: in vivo, Wistar rats; conditions: caudate dialysate
Protocol: (§1) Striatal GLU release: Transcerebral microdialysis tubing having an exposed length of 1 mm for each caudate, were implanted through small burr holes drilled in the skull of anesthetized male Wistar rats. Approximately twelve hours after surgery, in freely moving animals, the membranes were perfused at a flow rate of 3.5 µl/min. After a washout period of approximately one hour, fractions were collected to determine the basal output of KYNA and of GLU. KYNA was measured using HPLC with post column derivatization and fluorometric detection as previously reported. HPLC separation and fluorometric detection was also used for quantitative measurements of GLU (Carpenedo et al 2001, Europ. J. Neuroscience 13, 2141-2147).

[3] = test system: KYNA; assay: Measurement of hippocampal KYNA levels by microdialysis; assay type: in vivo, rats
Protocol: Measurement of hippocampal kyna levels: Microdialysis was performed in adult, male rats (Charles-River; 200-250 g). Under anesthesia, a microdialysis probe (CMA/10, membrane length: 2 mm, Carnegie […], Stockholm, Sweden) was implanted vertically into the brain, extending throughout the dorsal hippocampus. On the next day, the probe was connected to a microperfusion pump, and the hippocampus of the unanesthetized rat was perfused with Ringer solution at a speed of 1 microliter/min. Dialysate was collected every 30 min. The concentration of KYNA in the dialysis samples was determined by HPLC with fluorimetric detection, using the analytical procedure described by Wu et al. (Eur. J. Neurosci., 4: 1264-1270,1992).

[4] = biological target: T1, brain KMO (Rattus norvegicus, UniProt O88867); assay: In vitro KMO activity determination (rat brain mitochondria preparation, HPLC of 3-OH-KYN formation); assay type: biochemical
T1 construct: from tissue; host or cells: rat brain cortex, mitochondrial fraction (male Wistar rats)
T1 sequence (O88867 whole entry): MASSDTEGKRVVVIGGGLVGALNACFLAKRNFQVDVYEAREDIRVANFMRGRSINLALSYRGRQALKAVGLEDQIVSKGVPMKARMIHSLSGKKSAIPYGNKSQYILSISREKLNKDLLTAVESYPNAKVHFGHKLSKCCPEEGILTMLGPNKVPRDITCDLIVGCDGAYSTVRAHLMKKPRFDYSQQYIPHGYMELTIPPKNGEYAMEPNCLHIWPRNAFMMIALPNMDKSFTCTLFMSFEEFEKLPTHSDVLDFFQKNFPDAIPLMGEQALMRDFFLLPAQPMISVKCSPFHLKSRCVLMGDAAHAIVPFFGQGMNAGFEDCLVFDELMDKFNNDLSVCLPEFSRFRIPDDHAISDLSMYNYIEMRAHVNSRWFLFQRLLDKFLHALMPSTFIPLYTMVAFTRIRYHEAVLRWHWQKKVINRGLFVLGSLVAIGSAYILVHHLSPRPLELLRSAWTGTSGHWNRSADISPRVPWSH
Protocol: Rat brain mitochondria preparation: Male Wistar rats were sacrificed and brain quickly removed, cortex was dissected out on ice and homogenized in 2.5 volumes of ice-cold 0.32 M saccarose using a glass-Teflon homogenizer. After centrifugation at 600 g for 10 min at 4°C, the supernatant was stored and the pellet was washed and centrifuged again. The two supernatants were pooled and centrifuged at 10,000 g for 10 min at 4°C. The pellet was washed in fresh saccarose and centrifuged twice at 15,000 g for 10 min at 4°C. The pellet (corresponding to the mitochondrial fraction) was resuspended in 2.5 volumes of ice-cold 20 mM potassium phosphate buffer containing 0.14 M KCl, pH 7.0. Protein content was determined by BCA protein assay kit from Pierce.
In vitro KMO activity determination: The enzyme activity was evaluated by measuring by HPLC the formation of 3-OH-KYN in homogenates incubated in the presence of a fixed concentration of KYN (close to the enzyme Km that in our experimental conditions is 30 µM) […]
IC50 values were determined from three independent inhibition curves using at least seven different inhibitor concentrations using non linear regression analysis (best fitting aided-computer program.

[5] = test system: KYNA; assay: KYNA output in caudate dialysate by transcerebral microdialysis; assay type: in vivo, Wistar rats
Protocol: as §1

Chain of KMO (O15229 whole entry, species assumed): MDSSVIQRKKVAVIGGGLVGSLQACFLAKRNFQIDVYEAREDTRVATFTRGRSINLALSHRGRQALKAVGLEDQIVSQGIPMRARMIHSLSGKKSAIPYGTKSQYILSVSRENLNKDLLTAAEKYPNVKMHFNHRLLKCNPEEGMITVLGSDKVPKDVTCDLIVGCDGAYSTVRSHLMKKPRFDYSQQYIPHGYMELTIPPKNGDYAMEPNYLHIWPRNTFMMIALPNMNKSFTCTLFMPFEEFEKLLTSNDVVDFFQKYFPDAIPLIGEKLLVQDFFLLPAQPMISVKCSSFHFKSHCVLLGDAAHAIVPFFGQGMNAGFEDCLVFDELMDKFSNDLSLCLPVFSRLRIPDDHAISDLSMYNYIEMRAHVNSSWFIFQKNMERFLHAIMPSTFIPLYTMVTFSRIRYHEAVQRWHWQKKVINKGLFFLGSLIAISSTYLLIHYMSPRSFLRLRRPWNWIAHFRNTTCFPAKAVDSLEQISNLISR

| IC50 ([4]; compound preincubated with mitochondria preparation for 30 min before adding the substrate (KYN), compared with IC50 without pre-incubation) | IC50 ([4]; in vitro brain KMO, without pre-incubation, KYN 50 µM, 60 min at 37°C, read-out: IC50) [nM] | Structure (SMILES) | IC50 [1] [nM] | decrease in GLU concentrations ([2]; 24 h later) [%] | decrease in GLU concentrations ([2]; highest dose (30-100 µmol/kg i.p.), in 2 hrs (maximum), basal 4.3 ± 0.9 µM) [%] | KYNA extracellular concentration, maximum increase ([3]; hippocampus dialysate, 50 mg/kg ip, 6 hours after drug administration, mean ± SEM, P< 0.01, basal 2.6 ± 0.2 nM) [nM] | brain KYNA content ([3]; hippocampus, 25 and 50 mg/kg i.p., systemic administration) | dialysate KYNA concentration ([3]; hippocampus, up to 24 h after both 25 and 50 mg/kg i.p., P<0.05) | brain KYNA content, maximum increase ([5]; 180 min after drug administration, basal 13.2 ± 0.1 nM) | increase in dialysate KYNA concentration ([5]; up to 24 h after 100 µmol/kg i.p.) |
| --- | --- | --- | --- | --- | --- | --- | --- | --- | --- | --- |
| – | – | O=C(O)C1CC1C(=O)c1ccc(Cl)c(Cl)c1 (stereo not shown) [2-(3,4-dichlorobenzoyl)-cyclopropane-1-carboxylic acid] | 180 | – | – | – | – | – | – | – |
| not significantly different | 66 | O=C(OC[C@H]1O[C@H](O)[C@H](O)[C@@H](O)[C@H]1O)[C@H]1C[C@@H]1C(=O)c1ccc(Cl)c(Cl)c1 | – | -65 | -78 ± 8 | 26.7 ± 2.2 | dose-dependently increased | significant increase | +750% | +280% |
